In brackets after ≈: the same amount, converted by molar mass.
Tests used:
[1] = Cytotoxicity against human diploid fibroblast cells at 100 ug/ml; type: cell-based
[2] = Cytotoxicity against human diploid fibroblast cells assessed as cytopathic effect at 12.5 ug/ml; type: cell-based
Aspergillus fumigatus = assay: Antimicrobial activity against Aspergillus fumigatus by standard agar dilution method; type: functional
Candida albicans = assay: Antimicrobial activity against Candida albicans by standard agar dilution method; type: functional

| SMILES | Activity [1] | Activity [2] | MIC (Aspergillus fumigatus) | MIC (Candida albicans) |
| --- | --- | --- | --- | --- |
| C[C@@H]1[C@H](O)[C@@H](C)/C=C/C=C/C=C/C=C/C=C/C=C/C=C/[C@H](O[C@@H]2O[C@H](C)[C@@H](O)[C@H](N)[C@@H]2O)C[C@@H]2O[C@](O)(C[C@@H](O)C[C@@H](O)[C@H](O)CC[C@@H](O)C[C@@H](O)CC(=O)O[C@H]1C)C[C@H](O)[C@H]2C(=O)O [AMPHOTERICIN B] | Toxic | Toxic |  |  |
| CC[C@@H](C)[C@H](OC(=O)/C=C/c1ccccc1)[C@H](C)[C@H](O)C/C=C/C=C\C(N)=O [BASILISKAMIDE A] |  |  | 2.5 µg/mL (≈ 6.49 µM) | 1 µg/mL (≈ 2.59 µM) |
| CC[C@@H](C)[C@H](O)[C@H](C)[C@@H](C/C=C/C=C\C(N)=O)OC(=O)/C=C/c1ccccc1 [BASILISKAMIDE B] |  |  | 5 µg/mL (≈ 13 µM) | 3.1 µg/mL (≈ 8.04 µM) |

Source: ChEMBL document CHEMBL1150655, “Tupuseleiamides and basiliskamides, new acyldipeptides and antifungal polyketides produced in culture by a Bacillus laterosporus isolate obtained from a tropical marine habitat” (J Nat Prod, 2002)
